Laboratory results: ChEMBL document CHEMBL5620362 (Eur J Med Chem, 2023)
The source made the active and inactive calls. No cut-off for these calls is given here.

How the values were obtained:
NCI-H358 = experiment: Anticancer activity against human NCI-H358 cells incubated for 72 hrs; format: functional, cell-based
HPAF-II [1] = experiment: Induction of apoptosis in human HPAF-II cells assessed as necrotic cells at 1 uM incubated for 48 hrs by Annexin V-FITC/PI staining based flow cytometry (reference value: 8.09 %); format: functional
NCI-H23 [2] = experiment: Induction of apoptosis in human NCI-H23 cells assessed as late apoptotic cells at 1 uM incubated for 48 hrs by Annexin V-FITC/PI staining based flow cytometry (reference value: 2.89 %); format: functional
HPAF-II [3] = experiment: Downregulation of ERK phosphorylation level in human HPAF-II cells harboring siROR-gamma at 0.1 uM by Western blot analysis; format: functional, cell-based
[4] = AUClast in ICR mouse at 3 mg/kg, iv; format: ADME, organism-based; conditions: in vivo
NCI-H23 [5] = experiment: Induction of apoptosis in human NCI-H23 cells assessed as early apoptotic cells at 10 uM incubated for 48 hrs by Annexin V-FITC/PI staining based flow cytometry (reference value: 4.17 %); format: functional
HPAF-II [6] = experiment: Downregulation of phosphorylated ERK expression in human HPAF-II cells at 0.1 to 1 uM incubated for 48 hrs by Western blot analysis; format: functional, cell-based; conditions: dose 0.1-1 µM
HPAF-II [7] = experiment: Induction of apoptosis in human HPAF-II cells assessed as increase in cleaved PARP level at 0.1 to 1 uM incubated for 48 hrs by Western blot analysis; format: functional, cell-based; conditions: dose 0.1-1 µM
NCI-H23 [8] = experiment: Induction of apoptosis in human NCI-H23 cells assessed as necrotic cells at 1 uM incubated for 48 hrs by Annexin V-FITC/PI staining based flow cytometry (reference value: 0.78 %); format: functional
[9] = Tmax in ICR mouse at 10 mg/kg, po; format: ADME, organism-based; conditions: in vivo
[10] = target: T1, Nuclear receptor ROR-gamma (Homo sapiens) (UniProt P51449); experiment: Antagonist activity at Gal4-tagged ROR-gamma LBD (unknown origin) transfected in HEK293T cells assessed as reduction in luciferase activity at 0.1 to 1 uM incubated for 24 hrs by Renilla luciferase reporter gene assay; format: cell-based; conditions: filed as antagonist, dose 0.1-1 µM
T1 sequence (whole entry): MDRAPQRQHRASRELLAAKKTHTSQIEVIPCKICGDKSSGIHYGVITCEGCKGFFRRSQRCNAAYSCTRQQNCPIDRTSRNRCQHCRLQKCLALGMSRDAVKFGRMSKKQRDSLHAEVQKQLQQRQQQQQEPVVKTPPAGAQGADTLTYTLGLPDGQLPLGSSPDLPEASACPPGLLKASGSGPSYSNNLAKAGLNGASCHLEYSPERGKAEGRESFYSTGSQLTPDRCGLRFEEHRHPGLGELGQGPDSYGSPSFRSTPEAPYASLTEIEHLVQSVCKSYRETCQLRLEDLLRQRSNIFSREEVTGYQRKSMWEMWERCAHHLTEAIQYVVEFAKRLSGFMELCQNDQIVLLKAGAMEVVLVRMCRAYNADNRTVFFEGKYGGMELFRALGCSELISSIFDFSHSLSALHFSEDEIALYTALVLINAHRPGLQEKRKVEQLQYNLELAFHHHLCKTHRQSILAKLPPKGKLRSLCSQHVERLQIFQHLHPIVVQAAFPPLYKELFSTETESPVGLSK

HPAF-II [11] = experiment: Induction of apoptosis in human HPAF-II cells assessed as necrotic cells at 0.01 uM incubated for 48 hrs by Annexin V-FITC/PI staining based flow cytometry (reference value: 8.09 %); format: functional
NCI-H23 [12] = experiment: Induction of apoptosis in human NCI-H23 cells assessed as necrotic cells at 0.1 uM incubated for 48 hrs by Annexin V-FITC/PI staining based flow cytometry (reference value: 0.78 %); format: functional
HPAF-II [13] = experiment: Inhibition of colony formation in human HPAF-II cells harboring siROR-gamma 0.1 uM incubated for 6 to 7 days by crystal violet staining based analysis; format: functional, cell-based; conditions: time 6-7 day
NCI-H23 [14] = experiment: Induction of apoptosis in human NCI-H23 cells assessed as early apoptotic cells at 0.01 uM incubated for 48 hrs by Annexin V-FITC/PI staining based flow cytometry (reference value: 4.17 %); format: functional
[15] = Cmax in ICR mouse at 10 mg/kg, po; format: ADME, organism-based; conditions: in vivo
HPAF-II [16] = experiment: Induction of apoptosis in human HPAF-II cells assessed as early apoptotic cells at 1 uM incubated for 48 hrs by Annexin V-FITC/PI staining based flow cytometry (reference value: 0.90 %); format: functional
MIA PaCa-2 = experiment: Induction of apoptosis in human MIA PaCa-2 cells 1 uM incubated for 48 hrs by Annexin V-FITC/PI staining based flow cytometry; format: functional, cell-based
[17] = Oral bioavailability in ICR mouse at 10 mg/kg; format: ADME, organism-based; conditions: in vivo
[18] = Toxicity in nude Balb/cA mouse xenografted with human HPAF-II cells assessed as swelling at injection site at 15 mg/kg, ip qd measured for 12 days; format: organism-based; conditions: in vivo, 288 h, time 12 day
NCI-H23 [19] = experiment: Induction of apoptosis in human NCI-H23 cells assessed as late apoptotic cells at 0.01 uM incubated for 48 hrs by Annexin V-FITC/PI staining based flow cytometry (reference value: 2.89 %); format: functional
NCI-H23 [20] = experiment: Induction of apoptosis in human NCI-H23 cells assessed as early apoptotic cells at 1 uM incubated for 48 hrs by Annexin V-FITC/PI staining based flow cytometry (reference value: 4.17 %); format: functional
[21] = Clearance in ICR mouse at 3 mg/kg, iv; format: ADME, organism-based; conditions: in vivo
HPAF-II [22] = experiment: Induction of apoptosis in human HPAF-II cells assessed as viable cells at 0.01 uM incubated for 48 hrs by Annexin V-FITC/PI staining based flow cytometry (reference value: 89.73 %); format: functional; conditions: read-out: Activity
NCI-H23 [23] = experiment: Induction of apoptosis in human NCI-H23 cells assessed as viable cells at 1 uM incubated for 48 hrs by Annexin V-FITC/PI staining based flow cytometry (reference value: 92.16 %); format: functional; conditions: read-out: Activity
NCI-H23 [24] = experiment: Induction of apoptosis in human NCI-H23 cells assessed as viable cells at 0.01 uM incubated for 48 hrs by Annexin V-FITC/PI staining based flow cytometry (reference value: 92.16 %); format: functional; conditions: read-out: Activity
HPAF-II [25] = experiment: Induction of apoptosis in human HPAF-II cells assessed as viable cells at 0.1 uM incubated for 48 hrs by Annexin V-FITC/PI staining based flow cytometry (reference value: 89.73 %); format: functional; conditions: read-out: Activity
HPAF-II [26] = experiment: Antitumor activity against human HPAF-II cells xenografted in nude Balb/cA mouse assessed as tumor growth inhibition at 150 mg/kg, po qd measured for 12 days relative to control; format: functional; design: scale not given: the % may be the effect or the level left; conditions: time 12 day
[27] = Toxicity in nude Balb/cA mouse xenografted with human HPAF-II cells assessed as body weight loss at 90 to 180 mg/kg, po qd measured for 12 days; format: organism-based; conditions: in vivo, 288 h, dose 90-180 mg/kg, time 12 day
[28] = AUClast in ICR mouse at 10 mg/kg, po; format: ADME, organism-based; conditions: in vivo
HPAF-II [29] = experiment: Antitumor activity against human HPAF-II cells xenografted in nude Balb/cA mouse assessed as tumor growth inhibition at 90 mg/kg, po qd measured for 12 days relative to control; format: functional; design: scale not given: the % may be the effect or the level left; conditions: time 12 day

## C=C(C)[C@@H]1CC[C@]2(C(=O)NCCCN(C)C)CC[C@]3(C)[C@H](CC[C@@H]4[C@@]5(C)CC[C@H](O)C(C)(C)[C@@H]5CC[C@]43C)[C@@H]12
NCI-H358
  Activity: Active
HPAF-II [1]
  Activity: 2.06%
NCI-H23 [2]
  Activity: 18.15%
HPAF-II [3]
  Activity: Active
[4]
  AUC(0-t): 2980 ng·h/mL
NCI-H23 [5]
  Activity: 64.02%
HPAF-II [6]
  Activity: Active
HPAF-II [7]
  Activity: Active
NCI-H23 [8]
  Activity: 1.48%
[9]
  Tmax: 2 h
[10]
  Activity: Active
HPAF-II [11]
  Activity: 7.52%
NCI-H23 [12]
  Activity: 4.71%
HPAF-II [13]
  inhibition: inactive
NCI-H23 [14]
  Activity: 4.06%
[15]
  Cmax: 114 ng/mL
HPAF-II [16]
  Activity: 39.49%
MIA PaCa-2
  Activity: Active
[17]
  bioavailability: 16.8%
[18]
  Activity: Toxic
NCI-H23 [19]
  Activity: 6.78%
NCI-H23 [20]
  Activity: 67.63%
[21]
  clearance: 16.5 mL/min/kg
HPAF-II [22]
  viability at 0.01 µM: 82.6%
NCI-H23 [23]
  viability at 1 µM: 12.7%
NCI-H23 [24]
  viability at 0.01 µM: 86.3%
HPAF-II [25]
  viability at 0.1 µM: 59.3%
HPAF-II [26]
  Activity: 39%
[27]
  Activity: Non-Toxic
[28]
  AUC(0-t): 1670 ng·h/mL
HPAF-II [29]
  Activity: 21%
